# In ChEMBL document CHEMBL5465560, “Selectivity Literature for EUbOPEN Chemogenomic Library” (2024):
# Assays:
# [1] = target: Tyrosine-protein kinase Fyn (Homo sapiens) (UniProt P06241); experiment: Selectivity interaction (KinomeScan (DiscoverX)) EUB0001049a FYN; settings: at 1 µM
# [2] = target: T1, Serine/threonine-protein kinase NLK (Homo sapiens) (UniProt Q9UBE8); experiment: Selectivity interaction (KinomeScan (DiscoverX)) EUB0001049a NLK; settings: at 1 µM
# T1 sequence (whole entry): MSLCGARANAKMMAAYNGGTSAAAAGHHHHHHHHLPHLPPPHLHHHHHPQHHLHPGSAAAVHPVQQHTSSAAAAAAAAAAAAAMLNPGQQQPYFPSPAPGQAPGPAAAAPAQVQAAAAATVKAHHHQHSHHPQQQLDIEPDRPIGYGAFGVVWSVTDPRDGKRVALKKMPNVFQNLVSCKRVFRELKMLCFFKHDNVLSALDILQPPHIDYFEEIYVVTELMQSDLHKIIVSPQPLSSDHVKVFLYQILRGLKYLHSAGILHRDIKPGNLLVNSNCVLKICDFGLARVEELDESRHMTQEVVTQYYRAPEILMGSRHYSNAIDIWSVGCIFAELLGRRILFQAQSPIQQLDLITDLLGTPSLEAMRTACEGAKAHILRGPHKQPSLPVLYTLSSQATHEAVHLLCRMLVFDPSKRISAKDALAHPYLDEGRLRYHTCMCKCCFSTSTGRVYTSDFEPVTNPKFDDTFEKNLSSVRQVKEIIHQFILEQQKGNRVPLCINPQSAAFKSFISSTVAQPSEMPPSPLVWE
# [3] = target: Ephrin type-A receptor 7 (Homo sapiens) (UniProt Q15375); experiment: Selectivity interaction (KinomeScan (DiscoverX)) EUB0001049a EPHA7; settings: at 1 µM
# [4] = target: T2, Activin receptor type-1 (Homo sapiens) (UniProt Q04771); experiment: Selectivity interaction (KinomeScan (DiscoverX)) EUB0000666a ACVR1; settings: at 10 µM
# T2 sequence (whole entry): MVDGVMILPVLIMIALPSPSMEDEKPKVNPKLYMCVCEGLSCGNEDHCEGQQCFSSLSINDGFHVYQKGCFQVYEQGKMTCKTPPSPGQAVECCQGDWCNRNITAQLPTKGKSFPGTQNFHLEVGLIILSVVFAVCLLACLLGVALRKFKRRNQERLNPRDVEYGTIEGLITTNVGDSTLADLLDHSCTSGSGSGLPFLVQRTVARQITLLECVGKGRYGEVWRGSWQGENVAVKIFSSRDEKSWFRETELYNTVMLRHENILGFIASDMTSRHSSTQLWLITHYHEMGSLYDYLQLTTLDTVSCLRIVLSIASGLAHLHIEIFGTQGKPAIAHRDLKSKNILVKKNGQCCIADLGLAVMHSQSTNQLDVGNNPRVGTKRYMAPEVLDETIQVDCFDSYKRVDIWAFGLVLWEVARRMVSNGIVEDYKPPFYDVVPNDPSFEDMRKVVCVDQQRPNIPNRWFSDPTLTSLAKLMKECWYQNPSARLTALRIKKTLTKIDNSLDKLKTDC
# [5] = target: Mitogen-activated protein kinase kinase kinase 10 (Homo sapiens) (UniProt Q02779); experiment: Selectivity interaction (KinomeScan (DiscoverX)) EUB0000229b MAP3K10; settings: at 10 µM
# [6] = target: Histamine H1 receptor (Homo sapiens, UniProt P35367); experiment: Selectivity interaction (GPCR panel (PDSP screen)) EUB0001079a HRH1; settings: at 10 µM
# [7] = target: Ribosomal protein S6 kinase alpha-1 (Homo sapiens, UniProt Q15418); experiment: Selectivity interaction (ActivX KiNativ screen (kinase selectivity in THP-1 cell lysates)) EUB0000639a RPS6KA1; type: subcellular; settings: lysate, at 0.2 µM
# [8] = target: Serine/threonine-protein kinase PLK3 (Homo sapiens, UniProt Q9H4B4); experiment: Selectivity interaction (KinomeScan (DiscoverX)) EUB0000618a PLK3; settings: at 10 µM
# [9] = target: Cyclin-dependent kinase 7 (Homo sapiens, UniProt P50613); settings: at 10 µM
# [10] = target: T3, Ephrin type-A receptor 1 (Homo sapiens) (UniProt P21709); settings: at 10 µM
# T3 sequence (whole entry): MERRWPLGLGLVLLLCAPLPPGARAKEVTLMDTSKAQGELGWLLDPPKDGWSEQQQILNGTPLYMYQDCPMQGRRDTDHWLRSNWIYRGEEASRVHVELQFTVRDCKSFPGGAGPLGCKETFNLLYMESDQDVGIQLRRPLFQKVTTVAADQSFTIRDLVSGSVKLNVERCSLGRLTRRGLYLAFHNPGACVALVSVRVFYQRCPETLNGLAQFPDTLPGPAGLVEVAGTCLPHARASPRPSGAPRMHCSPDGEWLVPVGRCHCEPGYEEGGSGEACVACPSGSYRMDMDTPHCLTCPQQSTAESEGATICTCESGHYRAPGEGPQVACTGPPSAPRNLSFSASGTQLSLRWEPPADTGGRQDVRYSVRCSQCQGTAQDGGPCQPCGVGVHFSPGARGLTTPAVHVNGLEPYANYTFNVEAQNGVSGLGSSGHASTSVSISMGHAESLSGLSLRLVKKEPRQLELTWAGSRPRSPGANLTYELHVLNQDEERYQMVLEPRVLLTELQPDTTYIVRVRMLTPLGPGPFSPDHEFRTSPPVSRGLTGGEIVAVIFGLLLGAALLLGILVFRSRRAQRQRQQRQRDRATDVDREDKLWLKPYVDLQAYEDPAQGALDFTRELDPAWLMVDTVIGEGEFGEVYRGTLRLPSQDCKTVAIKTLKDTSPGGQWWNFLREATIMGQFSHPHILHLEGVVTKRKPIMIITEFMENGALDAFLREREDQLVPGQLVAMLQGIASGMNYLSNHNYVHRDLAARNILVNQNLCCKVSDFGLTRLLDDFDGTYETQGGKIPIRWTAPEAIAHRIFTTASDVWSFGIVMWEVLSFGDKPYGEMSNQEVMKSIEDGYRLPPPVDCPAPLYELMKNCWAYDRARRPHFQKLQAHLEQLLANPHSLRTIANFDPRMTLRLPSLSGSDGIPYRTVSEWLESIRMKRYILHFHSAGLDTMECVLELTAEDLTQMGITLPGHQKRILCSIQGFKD
# [11] = target: Serine/threonine-protein kinase 38-like (Homo sapiens) (UniProt Q9Y2H1); experiment: Selectivity interaction (KinomeScan (DiscoverX)) EUB0000655a STK38L; settings: at 10 µM
# [12] = target: aryl hydrocarbon receptor (AHR) (Homo sapiens, UniProt P35869); experiment: Selectivity interaction (Panel of kinases, GPCRs, ion channels and transporters (enzymatic assay)) EUB0000266bCl AHR
# [13] = target: CDK18/Cyclin Y (Homo sapiens) (UniProt Q07002+Q8ND76); experiment: Selectivity interaction (Kinase panel (Z-LYTE Assay)) EUB0001632a CDK18; type: protein-complex assay; settings: at 10 µM
# Chain of Serine/threonine-protein kinase 38-like (Homo sapiens) (Q9Y2H1 2-464 limits assumed): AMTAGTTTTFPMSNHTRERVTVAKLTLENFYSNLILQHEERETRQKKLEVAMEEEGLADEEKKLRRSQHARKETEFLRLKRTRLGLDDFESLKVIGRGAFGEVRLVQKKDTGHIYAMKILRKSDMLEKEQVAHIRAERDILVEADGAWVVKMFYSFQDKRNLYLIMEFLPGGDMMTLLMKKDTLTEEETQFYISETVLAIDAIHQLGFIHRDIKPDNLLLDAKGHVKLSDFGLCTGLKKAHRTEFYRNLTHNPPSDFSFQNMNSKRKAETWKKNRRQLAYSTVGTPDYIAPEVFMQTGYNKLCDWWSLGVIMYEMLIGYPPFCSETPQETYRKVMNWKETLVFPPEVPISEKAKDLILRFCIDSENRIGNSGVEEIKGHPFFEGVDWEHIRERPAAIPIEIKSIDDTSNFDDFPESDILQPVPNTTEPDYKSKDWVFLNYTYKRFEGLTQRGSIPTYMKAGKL
# Chain of Mitogen-activated protein kinase kinase kinase 10 (Homo sapiens) (Q02779 whole entry, looked up): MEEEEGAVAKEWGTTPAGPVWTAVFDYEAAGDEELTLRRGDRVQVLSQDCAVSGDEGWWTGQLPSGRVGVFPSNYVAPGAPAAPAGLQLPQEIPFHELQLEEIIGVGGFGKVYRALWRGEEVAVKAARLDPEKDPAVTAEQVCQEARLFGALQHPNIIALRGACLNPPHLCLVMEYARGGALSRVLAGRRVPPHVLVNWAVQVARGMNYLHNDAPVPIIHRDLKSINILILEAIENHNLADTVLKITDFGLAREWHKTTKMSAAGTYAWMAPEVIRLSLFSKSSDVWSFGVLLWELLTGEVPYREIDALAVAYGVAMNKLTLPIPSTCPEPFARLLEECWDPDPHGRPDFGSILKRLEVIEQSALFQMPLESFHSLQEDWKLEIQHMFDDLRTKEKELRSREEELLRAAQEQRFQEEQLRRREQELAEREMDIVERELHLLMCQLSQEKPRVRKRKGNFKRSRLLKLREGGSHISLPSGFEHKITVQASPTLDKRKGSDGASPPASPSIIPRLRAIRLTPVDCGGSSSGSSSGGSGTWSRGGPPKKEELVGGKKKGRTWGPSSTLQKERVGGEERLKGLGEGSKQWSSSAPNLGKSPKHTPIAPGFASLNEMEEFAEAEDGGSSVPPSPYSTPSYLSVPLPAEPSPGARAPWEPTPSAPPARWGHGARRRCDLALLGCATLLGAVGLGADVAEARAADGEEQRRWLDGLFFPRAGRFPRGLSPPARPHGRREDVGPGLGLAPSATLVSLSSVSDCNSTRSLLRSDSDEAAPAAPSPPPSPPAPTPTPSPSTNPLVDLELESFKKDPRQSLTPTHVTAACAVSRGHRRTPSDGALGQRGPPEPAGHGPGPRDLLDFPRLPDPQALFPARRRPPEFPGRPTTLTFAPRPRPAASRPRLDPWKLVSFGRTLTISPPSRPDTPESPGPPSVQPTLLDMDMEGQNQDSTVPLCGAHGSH
# Chain of Ribosomal protein S6 kinase alpha-1 (Q15418 whole entry): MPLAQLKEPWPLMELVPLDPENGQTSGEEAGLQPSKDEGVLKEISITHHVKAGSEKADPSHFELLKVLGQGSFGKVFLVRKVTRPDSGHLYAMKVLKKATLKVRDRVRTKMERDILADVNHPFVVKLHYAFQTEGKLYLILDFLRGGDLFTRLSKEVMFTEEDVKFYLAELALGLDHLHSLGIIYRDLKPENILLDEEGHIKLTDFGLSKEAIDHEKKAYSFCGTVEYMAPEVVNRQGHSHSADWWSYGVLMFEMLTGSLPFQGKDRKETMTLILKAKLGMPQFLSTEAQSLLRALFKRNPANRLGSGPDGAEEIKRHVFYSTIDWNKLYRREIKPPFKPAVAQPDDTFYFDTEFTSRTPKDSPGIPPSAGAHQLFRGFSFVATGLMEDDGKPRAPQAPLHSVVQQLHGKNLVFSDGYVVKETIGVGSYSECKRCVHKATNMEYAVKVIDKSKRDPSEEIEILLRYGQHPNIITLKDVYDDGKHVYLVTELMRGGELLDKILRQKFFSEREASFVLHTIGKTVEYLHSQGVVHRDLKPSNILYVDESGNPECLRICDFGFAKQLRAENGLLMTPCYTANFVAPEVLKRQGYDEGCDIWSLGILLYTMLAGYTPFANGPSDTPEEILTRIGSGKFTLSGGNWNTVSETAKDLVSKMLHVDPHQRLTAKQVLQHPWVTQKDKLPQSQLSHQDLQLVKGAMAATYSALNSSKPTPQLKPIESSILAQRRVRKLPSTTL
# Chain of Histamine H1 receptor (P35367 whole entry): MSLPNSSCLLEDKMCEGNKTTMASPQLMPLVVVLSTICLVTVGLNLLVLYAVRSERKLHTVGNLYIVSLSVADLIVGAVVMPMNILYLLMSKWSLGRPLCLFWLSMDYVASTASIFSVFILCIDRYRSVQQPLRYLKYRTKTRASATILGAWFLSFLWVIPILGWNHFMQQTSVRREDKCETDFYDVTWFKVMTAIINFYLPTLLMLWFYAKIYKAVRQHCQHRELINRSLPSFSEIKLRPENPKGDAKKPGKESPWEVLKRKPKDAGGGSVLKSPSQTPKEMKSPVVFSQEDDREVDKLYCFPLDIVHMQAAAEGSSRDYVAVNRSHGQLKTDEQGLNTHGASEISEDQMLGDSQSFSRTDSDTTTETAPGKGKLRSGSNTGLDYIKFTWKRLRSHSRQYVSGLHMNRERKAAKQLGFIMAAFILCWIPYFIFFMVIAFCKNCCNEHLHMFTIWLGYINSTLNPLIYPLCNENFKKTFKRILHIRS
# Chain of aryl hydrocarbon receptor (AHR) (P35869 whole entry): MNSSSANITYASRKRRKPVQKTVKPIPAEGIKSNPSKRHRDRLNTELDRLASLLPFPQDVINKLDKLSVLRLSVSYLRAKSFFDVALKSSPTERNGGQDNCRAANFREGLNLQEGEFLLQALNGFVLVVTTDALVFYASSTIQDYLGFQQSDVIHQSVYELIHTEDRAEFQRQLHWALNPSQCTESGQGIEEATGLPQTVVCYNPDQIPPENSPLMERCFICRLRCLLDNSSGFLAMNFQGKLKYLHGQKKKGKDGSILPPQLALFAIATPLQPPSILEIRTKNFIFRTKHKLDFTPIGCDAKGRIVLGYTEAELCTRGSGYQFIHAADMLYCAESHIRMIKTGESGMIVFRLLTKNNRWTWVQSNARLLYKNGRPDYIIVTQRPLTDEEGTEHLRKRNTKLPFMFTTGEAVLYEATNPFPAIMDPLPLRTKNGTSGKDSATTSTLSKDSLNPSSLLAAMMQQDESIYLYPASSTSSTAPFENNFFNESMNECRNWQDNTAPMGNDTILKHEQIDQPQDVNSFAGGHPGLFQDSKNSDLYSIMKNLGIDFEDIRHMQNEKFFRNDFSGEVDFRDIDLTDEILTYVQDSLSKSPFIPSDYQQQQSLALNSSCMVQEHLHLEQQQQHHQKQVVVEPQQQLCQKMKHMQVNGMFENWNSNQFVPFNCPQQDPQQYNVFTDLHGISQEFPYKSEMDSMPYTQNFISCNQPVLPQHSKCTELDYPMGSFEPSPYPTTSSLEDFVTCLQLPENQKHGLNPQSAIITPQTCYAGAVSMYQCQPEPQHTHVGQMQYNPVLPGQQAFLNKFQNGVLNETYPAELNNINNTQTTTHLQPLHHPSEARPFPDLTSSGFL
# Chain of Ephrin type-A receptor 7 (Homo sapiens) (Q15375 28-998 limits assumed): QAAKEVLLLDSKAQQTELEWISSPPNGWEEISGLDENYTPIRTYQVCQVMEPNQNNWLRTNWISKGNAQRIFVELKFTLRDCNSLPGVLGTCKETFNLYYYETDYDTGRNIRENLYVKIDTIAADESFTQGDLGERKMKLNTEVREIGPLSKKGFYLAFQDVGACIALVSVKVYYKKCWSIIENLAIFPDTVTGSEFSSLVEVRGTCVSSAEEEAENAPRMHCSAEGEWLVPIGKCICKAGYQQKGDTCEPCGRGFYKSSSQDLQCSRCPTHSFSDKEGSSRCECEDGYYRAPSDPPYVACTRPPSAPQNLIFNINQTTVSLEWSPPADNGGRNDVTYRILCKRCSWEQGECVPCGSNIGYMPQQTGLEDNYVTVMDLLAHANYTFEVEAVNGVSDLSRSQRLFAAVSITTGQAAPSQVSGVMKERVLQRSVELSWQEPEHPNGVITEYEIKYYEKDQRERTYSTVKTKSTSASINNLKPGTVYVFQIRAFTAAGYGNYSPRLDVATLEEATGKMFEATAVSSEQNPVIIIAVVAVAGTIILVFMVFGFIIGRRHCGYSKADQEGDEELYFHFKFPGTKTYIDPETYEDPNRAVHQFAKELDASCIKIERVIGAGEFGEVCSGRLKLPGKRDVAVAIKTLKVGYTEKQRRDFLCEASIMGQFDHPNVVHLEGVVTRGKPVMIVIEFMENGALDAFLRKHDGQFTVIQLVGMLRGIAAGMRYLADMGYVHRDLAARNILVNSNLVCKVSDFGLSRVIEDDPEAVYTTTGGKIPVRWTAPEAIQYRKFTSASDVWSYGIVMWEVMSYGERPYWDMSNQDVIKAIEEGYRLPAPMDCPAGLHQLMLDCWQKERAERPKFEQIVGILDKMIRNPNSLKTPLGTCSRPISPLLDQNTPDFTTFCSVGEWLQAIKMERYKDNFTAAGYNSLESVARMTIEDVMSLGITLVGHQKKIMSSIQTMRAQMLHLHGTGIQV
# Chain of Cyclin-dependent kinase 7 (P50613 whole entry): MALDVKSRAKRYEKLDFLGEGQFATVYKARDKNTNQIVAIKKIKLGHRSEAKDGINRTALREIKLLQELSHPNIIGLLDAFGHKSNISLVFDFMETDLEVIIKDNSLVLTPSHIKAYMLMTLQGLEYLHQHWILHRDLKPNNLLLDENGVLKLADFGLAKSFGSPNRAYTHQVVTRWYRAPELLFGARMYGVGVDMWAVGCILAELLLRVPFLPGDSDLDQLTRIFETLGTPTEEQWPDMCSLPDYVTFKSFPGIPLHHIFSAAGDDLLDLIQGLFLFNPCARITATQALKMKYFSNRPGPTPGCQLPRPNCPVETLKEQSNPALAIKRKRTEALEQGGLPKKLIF
smiles,measurement,setting,value
COc1cc(Nc2nc(C)cc(-c3cnn4nc(OC)ccc34)n2)cc(C(F)(F)F)c1,% of control,[1],100%
same,% of control,[2],100%
same,% of control,[3],77%
O=C(NOC[C@H](O)CO)c1ccc(F)c(F)c1Nc1ccc(I)cc1F,% of control,[4],76%
COc1cc(N(C)c2ccnc3ccc(C(F)(F)F)cc23)cc(OC)c1OC,% binding,[5],100%
Nc1cnc(N2CCc3cc(S(=O)(=O)Nc4c(F)cc(Cl)cc4F)cc(N4CCCC4=O)c32)nc1 [TP-020n],% of inhibition,[6],-2.69%
CC[C@@H]1[C@H](F)C(=O)N[C@@H]1COc1nccc2cc(C(N)=O)c(OC)cc12 [ZIMLOVISERTIB],% of inhibition,[7],13.8%
O[C@H]1CC[C@H](Nc2ncc3nc(Nc4c(F)cc(F)cc4F)n([C@H]4CCOC4)c3n2)CC1,% of control,[8],100%
Cc1cc([C@@H](C)Nc2ccccc2C(=O)O)c2nc(N3CCOCC3)cc(=O)n2c1 [AZD-6482],% of control,[9],97%
same,% of control,[10],100%
CN(C)CCOc1ccc(-c2nc(-c3ccncc3)c(-c3ccc4c(c3)CC/C4=N\O)[nH]2)cc1,% of control,[11],100%
CCn1c(-c2nc3cc(C(=O)N4CCCC(N)C4)ccc3n2C)cc2ccccc21 (stereo not drawn),XC50,[12],> 100 µM
Cn1cc(-n2cnc3c(NCc4nc5cc(Cl)c(Cl)cc5[nH]4)nc(N4CCOCC4)nc32)cn1,% of control,[13],1.58%
